Literature values in patent US8545882B2, “Control release formulation containing a hydrophobic material as the sustained release agent” (Nostrum Pharmaceuticals, Inc., priority 2001, dated 2013).
Like-named read-outs stand apart in the source and are kept apart here. Blank lines part the entries; values can stand above or below the molecule they belong to.

Key:
[1] = water
[2] = 40% by weight glycerol palmitostearate, wet granulation, after 20 minutes
[3] = granules 200-315 microns, any of three polymers at 10 or 20% by weight

- theophylline released ([1]; 2% (w/w) wax coating, within one hour): 85%
- theophylline released ([1]; 6% wax coating, in 5 minutes): 35%
- theophylline released ([1]; 6% wax coating, within the first hour): 55%
- theophylline released ([1]; 10% (w/w) wax coating, in 5 minutes): 28%
- theophylline released ([1]; 10% (w/w) wax coating, within the first hour): 38%
SMILES: Cn1c(=O)c2[nH]cnc2n(C)c1=O [theophylline]

SMILES: O=C([O-])c1ccccc1O.[Na+] [sodium salicylate]
- drug released in water [2]: 50%

- time in which the drug was released completely [3]: ≤ 30 min
SMILES: CC(C)Cc1ccc(C(C)C(=O)O)cc1 (stereo not shown) [ibuprofen]
